Results as given in patent US20070054887A1, “Methods for treating bladder dysfunction” (BioXell S.p.A, priority 2003, published 2007).
Several values for one entry are separate records, joined by “and”; a condition that tells them apart may be missing. Equal entries are not always repeated.

How the values were obtained:
human bladder cells = assay: inhibition of basal human bladder cell growth; type: cell-based
BPH cells = conditions: previously found, cited from earlier work; for BPH cell proliferation: also counteracted mitogenic activity of KGF and IGFI
[1] = maximum tolerated dose (MTD) in rats; type: in vivo; conditions: rat, in vivo, read-out: MTD
Source text: The maximum tolerated dose (MTD) in rats is also listed for each compound.

[2] = test system: rats with CYP-induced cystitis; assay: cyclophosphamide (CYP) induced chronic cystitis in rats: conscious cystometry; type: in vivo, Wistar rats; design: amplitude of NVBC (amplitude of non-voiding bladder contraction): unit not given here
Source text: The rat model of chemical cystitis induced by intraperitoneal injection of CYP has been well accepted. CYP is used in clinical practice in the treatment of a number of malignant tumors. One of its metabolites, acrolein, is excreted in urine in large concentrations causing hemorrhagic cystitis associated with symptoms of urinary frequency, urgency and pelvic pain. The inflammatory process is characterized by changes in gross histology of bladder, increase in number and distribution of inflammatory cell infiltrates (mast cells, macrophage, PMNs), cyclo-oxygenase-2 expression and prostaglandin production, growth factor and cytokine production. The rat model of chemical cystitis closely resembles interstitial cystitis, a chronic, painful urinary bladder syndrome and has been used for the testing of therapeutic agents in the past.
This model was used to test the effects of 1,25-dihydroxyvitamin D3 analogue in rats with CYP-induced cystitis. The effects of the treatment on the cystometric parameters in a conscious freely moving rat with CYP-induced cystitis were monitored. The following cystometric parameters were recorded in each animal:
Animals: Wistar rats weighing 125-175 g were used. […] Following recovery all animals received three intraperitoneal injections of CYP and subsequently were divided into the treatment and sham control groups.
Treatment group: Rats treated with oral 1,25-dihydroxyvitamin D3 analogue 1,3-di-O-acetyl-1,25-dihydroxy-16,23Z-diene-26,27-hexafluoro-19-nor-cholecalciferol (“Compound C”) for 14 days (daily dose of 0.1 μg/kg) [drawing 138]
Cystometry was performed 24 hours following the last dose of the drug or vehiculum on awake freely moving animals.
A lower midline abdominal incision was performed under general inhalation anesthesia (isoflurine with O2) and polyethylene tubing (PE-50, Clay Adams, Parsippany, N.J.) with the end flared by heat was inserted into the dome of the bladder and secured in place with a 6-0 prolene purse string suture. The distal end of the tubing was heat-sealed, tunneled subcutaneously and externalized at the back of the neck, out of the animal's reach. Abdominal and neck incisions were closed with 4-0 nylon sutures.
Following recovery (5 days) subject animals underwent three intraperitoneal injections of CYP (Sigma Chemical, St. Louis, Mo.; 75 mg/kg each, intraperitoneal) over the period of nine days. On the tenth day following the first CYP injection the sham control animals received the vehicle only, whereas the experimental group were treated with the 1,25-dihydroxyvitamin D3 analogue 1,3-di-O-acetyl-1,25-dihydroxy-16,23Z-diene-26,27-hexafluoro-19-nor-cholecalciferol “Compound C” (delivered using gavage). Two weeks following the initiation of the treatment animals underwent a conscious cystometrogram to assess the function of the urinary bladder.
An animal was placed unrestrained in a cage and the catheter was connected via a T-tube to a pressure transducer (Grass® Model PT300, West Warwick, R.I.) and microinjection pump (Harvard Apparatus 22, South Natick, Mass.). A 0.9% saline solution was infused at room temperature into the bladder at a rate of 10 ml/h. Intravesical pressure was recorded continuously using a Neurodata Acquisition System (Grass® Model 15, Astro-Med, Inc, West Warwick, R.I.). At least three reproducible micturition cycles were recorded after the initial stabilization period of 25-30 min.

hBC = assay: androgen-stimulated hBC growth, 48 h incubation; type: cell-based, human; conditions: DHT 10 nM, Compound A 1 nM, finasteride 1 nM, FIG. 5
Source text: Results are expressed as percentage variation (mean±SEM) over their relative controls and derived from at least three different experiments obtained from three distinct hBC cell preparations. *P<0.05 (vs. control); °P<0.01 (vs. androgen-treated cells).

[3] = drug treated animals versus vehicle, 0.1 μg/kg oral 14 days
[4] = oral 0.1 μg/kg daily for 14 days, individual rats, three micturition cycles each

SMILES: C=C1/C(=C\C=C2/CCC[C@]3(C)C([C@H](C)CC#CC(C)(C)O)=CC[C@@H]23)C[C@@H](O)C[C@@H]1O [Compound B, 1,25-dihydroxy-16-ene-23-yne cholecalciferol]
- inhibition of bladder cell growth (human bladder cells; stimulated and basal bladder cell growth, FIG. 4, in some cases significantly greater than anti-androgens such as finasteride): demonstrated
- BPH cell proliferation (BPH cells): inhibited
- apoptosis in BPH cells (BPH cells; unstimulated and KGF-stimulated BPH cells): induced

SMILES: CC(=O)OC1C/C(=C/C=C2\CCC[C@]3(C)C(C(C)C/C=C\C(O)(C(F)(F)F)C(F)(F)F)=CCC23)C[C@@H](OC(C)=O)C1 (stereo partly drawn) [Compound C, 1,3-di-O-acetyl-1,25-dihydroxy-16,23Z-diene-26,27-hexafluoro-19-nor-cholecalciferol]
- IC50 (human bladder cells; Homo sapiens): 39.8 nM
- MTD [1]: 0.1 µg/kg
- amplitude of non-voiding bladder contractions, change versus control [2, 3]: Dramatic reductions
- bladder capacity, change versus control [2, 3]: did not result in a change
- filling pressure, change versus control [2, 3]: statistically significant reductions
- number of non-voiding bladder contractions, change versus control [2, 3]: Dramatic reductions
- threshold pressure, change versus control [2, 3]: statistically significant reductions
- Bl. Cap. (bladder capacity) ([2]; oral 0.1 μg/kg daily for 14 days, individual rats RB7, RB13, RB15, three micturition cycles each): 1.9 ml and 1.3 ml (2×) and 2.5 ml and 1.5 ml and 0.7 ml (2×) and 0.8 ml and 1.4 ml
- # of NVBC (number of non-voiding bladder contractions) [2, 4]: 4 and 8 (2×) and 0 (6×)
- FP (filling pressure) [2, 4]: 15 cmH2O and 14 cmH2O (3×) and 12 cmH2O and 11 cmH2O and 10 cmH2O and 13 cmH2O (2×)
- MP (micturition pressure) [2, 4]: 105 cmH2O and 97 cmH2O (2×) and 90 cmH2O and 100 cmH2O and 108 cmH2O and 98 cmH2O and 101 cmH2O and 104 cmH2O
- TP (threshold pressure) [2, 4]: 16 cmH2O and 17 cmH2O and 14 cmH2O (4×) and 12 cmH2O and 11 cmH2O and 15 cmH2O
- amplitude of NVBC (amplitude of non-voiding bladder contraction) [2, 4]: 10 and 11 (2×) and 0 (6×)

SMILES: CC(C)(C)NC(=O)[C@H]1CC[C@H]2[C@@H]3CC[C@H]4NC(=O)C=C[C@]4(C)[C@H]3CC[C@]12C [finasteride, reference compound]
- hBC proliferation stimulated by the androgen DHT (hBC): no significant effect

SMILES: C=C1CC[C@H](O)C/C1=C/C=C1\CCC[C@]2(C)[C@@H]([C@H](C)CCCC(C)C)CC[C@@H]12 [vitamin D3, reference compound]
- BPH cell proliferation (BPH cells): inhibited
